Source: patent US10421769B2, “Anticancer property studies of chiral palladium N-heterocyclic carbene complexes and process for preparation thereof” (Indian Institute of Technology Bombay, priority 2017, dated 2019)
Entries after “also recorded” stand apart in the source; their conditions may differ. Like-named read-outs stand apart in the source and are kept apart here.

Key:
MCF-7 cells [1] = assay: Sulforhodamine B assay, proliferation of MCF-7 cells; assay type: cell-based, human; details: for IC50: MCF-7 breast cancer cells, one cell cycle (48 h), SRB
Protocol: (§1) The present invention further provides a Sulforhodamine B assay method for investigating the anti-cancer efficacies of the compounds of the present Pd—NHC series on MCF-7, HeLa, A549, B16-F10 and EMT6/AR1 cancer cell lines and also for a comparative study on normal skin cell line L929 and normal epithelial breast cells MCF10A. The said Sulforhodamine B assay is conducted as per reported method (Skehan et al., J. Natl. Cancer Inst. 1990, 82, 1107).
(§2) Experiment: The anti-proliferative activity of the present palladium N-heterocyclic carbene complexes on two different cancer cell lines MCF-7 and HeLa is tested using Sulforhodamine B assay to reveal their anti-tumor properties. The evaluation of growth inhibition of these complexes is done from their IC50 values for the inhibition of cell growth. The IC50 values are compared with Cisplatin to determine any increase in efficacy.
Method: The effects of present series of palladium N-heterocyclic carbene complexes, such as compounds (1S,2S,5R)-(1-3)b and (1R,2R,5S)-(1-3)b; (1S,2S,5R)-(1, 3)c and (1R,2R,5S)-(1, 3)c on the proliferation of MCF-7 cells after one cell cycle are determined by Sulforhodamine B assay. In particular, 1×10^5 cells/mL are seeded in each well in 96-well plates for 24 h and then incubated without or with different concentrations of these complexes at 37° C. for one cell cycle (48 h). After incubation of cells with the complexes for one cell cycle, cell growth is stopped by the addition of 50% trichloroacetic acid and stained with 0.4% sulforhodamine B dissolved in 1% acetic acid. Unbound dye is removed by washing with 1% acetic acid, and the protein content is determined by measuring absorbance at 520 nm in a Bio-Rad model 680 microplate reader after extracting with 10 mM tris base. IC50 value is calculated as the concentration of the complex that inhibited the proliferation of cells by 50% relative to the untreated control cells. The anticancer activities of the present Pd—NHC compounds are graphically represented in accompanying FIG. 1.
(§3) The data obtained is graphically represented in accompanying FIG. 2.

HeLa cells = assay: Sulforhodamine B assay, proliferation of HeLa cells; assay type: cell-based, human; details: for IC50: HeLa cervical cancer cells, 24 h, SRB
Protocol: as §1, §2
The seeded cells in 96-well plates are incubated with the complex for 24 h and the assay is performed.
as §3

B16-F10 cells = assay: Sulforhodamine B assay, B16-F10 skin cancer cells; assay type: cell-based, mouse; details: SRB
Protocol: as §1

EMT6/AR1 cells = assay: Sulforhodamine B assay, multidrug resistant EMT6/AR1 cells; assay type: cell-based, mouse; details: EMT6/AR1 multidrug resistant mammary cancer cells, SRB
Protocol: as §1

L929 cells = assay: Sulforhodamine B assay, normal skin cells L929 (selectivity); assay type: cell-based; details: L929 IC50 against B16-F10 IC50
Protocol: as §1

MCF10A cells = assay: Sulforhodamine B assay, normal epithelial breast cells MCF10A (selectivity); assay type: cell-based; details: MCF10A IC50 against MCF-7 IC50
Protocol: as §1

MCF-7 cells [2] = assay: Live dead assay by flow cytometry using propidium iodide; assay type: cell-based, human; details: for Dead % / Live %: 48 h
Protocol: MCF-7 cells (5 mL) were seeded in 60 mm cell culture dishes at a density of 1.5×10^5 cells/mL. Cells were incubated with 4 and 8 μM (1R,2R,5S)-1c for 48 h for live dead assay. After the required incubation, cells were processed and analyzed by flow cytometry. Percentage of live and dead MCF-7 cells in the absence and presence of 4 and 8 μM (1R,2R,5S)-1c and 4 μM cisplatin was determined by flow cytometry using propidium iodide (PI).

PARP-1 in MCF-7 cells = assay: Western blot analysis for PARP cleavage; assay type: cell-based, human; details: MCF-7, 4 and 8 μM, 48 h; cisplatin 4 μM as comparison
Protocol: Experiment: MCF-7 cells (5 mL) were seeded at a density of 1.5×10^5 cells/mL in 60 mm cell culture dishes. After cell attachment, they were incubated with 4 and 8 μM (1R,2R,5S)-1c and 4 μM cisplatin for 48 h. The cells were then processed and the whole cell lysate was isolated. An equal amount of total protein was resolved on SDS-PAGE and electroblotted onto a PVDF membrane (Millipore). Immunoblotting was performed using specific antibodies against PARP-1 and β-actin. The blots were developed by chemiluminescence using HRP conjugated secondary IgG.

[3] = tested on: intracellular ROS in MCF-7 cells; assay: Reactive oxygen species (ROS) assay using H2DCFDA, flow cytometry; assay type: cell-based, human; details: 24 h
Protocol: Experiment: Reactive oxygen species (ROS) production in cells when treated with (1R,2R,5S)-1c, was estimated by ROS assay using 2′,7′-dichlorodihydrofluorescein diacetate (H2DCFDA). MCF-7 cells (5 mL) were seeded in 60 mm cell culture dishes at a density of 1.5×10^5 cells/mL. After cell attachment, they were incubated with 4 and 8 μM (1R,2R,5S)-1c for 24 h. Cells treated with 30 μM hydrogen peroxide was used as a positive control. Following 24 h of incubation, the cells were processed and analyzed using flow cytometry. The percentage of DCFH-DA positive MCF-7 cells in the absence and presence 4 and 8 μM (1R,2R,5S)-1c was determined by flow cytometry. 30 μM H2O2 was used as a positive control. Data are average of three independent set of experiments and ±indicates S.D.

MCF-7 cells [4] = assay: Cell cycle analysis by flow cytometry (PI); assay type: cell-based, human; details: 36 h
Protocol: (§4) Experiment: MCF-7 cells (5 mL) were seeded in 60 mm cell culture dishes at a density of 1.5×10^5 cells/mL. The cells were incubated with 2 and 4 μM (1R,2R,5S)-1c for 36 h for cell cycle analysis. After the required incubation, cells were processed and analyzed by flow cytometry. Cell cycle data was analyzed using Flow Jo software. Cell cycle analysis and mitotic indices of MCF-7 cells in the absence and presence 2 and 4 μM (1R,2R,5S)-1c. Cell cycle analysis was done using flow cytometer after incubating the cells with PI. The data was analyzed using Flow Jo software. Data were average of three independent set of experiments with S.D (±). Mitotic index (percentage of cells in mitosis) was calculated based on DNA morphology of cells stained with Hoechst 33258. Data were average of three independent set of experiments with S.D (±). 1000 cells were scored in each set.

MCF-7 cells [5] = assay: Mitotic index from DNA morphology (Hoechst 33258); assay type: cell-based, human
Protocol: as §4

Substance: trans-[1-(1R)-menthyl-4-(ethyl)-1,2,4-triazol-5-ylidene]2Pd(OCOCF3)2 [(1R,2R,5S)-1c]
- IC50 of Cisplatin against MCF-7 as multiple of IC50 of the complex (MCF-7 cells [1]; MCF-7): 27 times
- IC50 (MCF-7 cells [1]; read-out: IC50 (μM), MCF-7): 0.55 ± 0.02 µM
- IC50 (MCF-7 cells [1]; unit nM printed in cell or sentence, read-out: IC50, MCF-7 (values given in nM)): 0.55 ± 0.02 µM
- IC50 of Cisplatin against HeLa as multiple of IC50 of the complex (HeLa cells; HeLa): around 4 times
- IC50 (HeLa cells; listed as drawing 41): 2.3 ± 1 µM
- IC50 (HeLa cells; listed as drawing 48): 2.3 ± 1 µM
- IC50 (B16-F10 cells): 1.3 ± 0.4 µM
- IC50 (EMT6/AR1 cells): 4.8 ± 0.3 µM
- times more selective towards the cancer cells (B16-F10 vs L929) (L929 cells): around 8.1 times
- times more selective towards the cancer cells (MCF-7 vs MCF10A) (MCF10A cells): around 16 times
- Cell death (in words) (MCF-7 cells [2]; MCF-7): leads to cell death in MCF-7 cells
- Dead % (MCF-7 cells [2]; MCF-7, 4 μM): 41 ± 2%
- Live % (MCF-7 cells [2]; MCF-7, 4 μM): 59 ± 2%
- Dead % (MCF-7 cells [2]; MCF-7, 8 μM): 90 ± 1%
- Live % (MCF-7 cells [2]; MCF-7, 8 μM): 10 ± 1%
- PARP cleavage (in words) (PARP-1 in MCF-7 cells): more pronounced than cisplatin; also recorded: cleaves PARP in MCF-7 cells
- % of DCFH-DA positive cells ([3]; MCF-7, 4 μM): 49 ± 11%
- % of DCFH-DA positive cells ([3]; MCF-7, 8 μM): 74 ± 1%
- Intracellular ROS generation (in words) ([3]; MCF-7, 4 and 8 μM): leads ROS production in cells; also recorded: ROS is generated in MCF-7 cells
- % of cells in different phases of cell cycle: G1 (MCF-7 cells [4]; MCF-7, 2 μM): 30 ± 2%
- % of cells in different phases of cell cycle: G2/M (MCF-7 cells [4]; MCF-7, 2 μM): 35 ± 2%
- % of cells in different phases of cell cycle: S (MCF-7 cells [4]; MCF-7, 2 μM): 31 ± 2%
- % of cells in different phases of cell cycle: G1 (MCF-7 cells [4]; MCF-7, 4 μM): 18 ± 2%
- % of cells in different phases of cell cycle: G2/M (MCF-7 cells [4]; MCF-7, 4 μM): 50 ± 2%
- % of cells in different phases of cell cycle: S (MCF-7 cells [4]; MCF-7, 4 μM): 32 ± 3%
- Cell cycle block (in words) (MCF-7 cells [4]; MCF-7, 2 and 4 μM): blocks MCF-7 cells at the G2 phase; also recorded: blocked cells at the G2/M phase
- Mitotic Index (percentage of cells in mitosis) (MCF-7 cells [5]; MCF-7, 2 μM): 3 ± 1%
- Mitotic Index (percentage of cells in mitosis) (MCF-7 cells [5]; MCF-7, 4 μM): 3.2 ± 1%
- Arrest at mitosis (in words) (MCF-7 cells [5]; MCF-7, Hoechst 33258 DNA morphology): did not arrest cells at mitosis
